This is an account of results in patent US11976083B2, “Inhibitors of peptidylarginine deiminases” (Gilead Sciences, Inc., priority 2020, dated 2024).

The target of this assay is T1, human PAD4 (Homo sapiens, UniProt Q9UM07).
T1 construct: human PAD4 (NM_012387), A2-P663, was PCR amplified; His-SUMO (N, cleaved yes); made in house; host or cells: E. coli BL21(DE3)
The experiment in a line: In vitro PAD4 BAEE biochemical assay. The settings on record: BAEE substrate 3 mM, 5 nM PAD4, 2 mM calcium chloride; geometric mean of multiple experiments. In outline:
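Assay was run at 25 °C using 3 mM BAEE and 5 nM human PAD4 after a 30 min compound preincubation; ammonia produced over 2 h was quantified by OPA-derived fluorescence. Full inhibition was defined by 50 µM BB-Cl-Amidine, and IC50 came from variable-slope nonlinear regression.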

Structures are written as SMILES.

T1 sequence (Q9UM07 2-663): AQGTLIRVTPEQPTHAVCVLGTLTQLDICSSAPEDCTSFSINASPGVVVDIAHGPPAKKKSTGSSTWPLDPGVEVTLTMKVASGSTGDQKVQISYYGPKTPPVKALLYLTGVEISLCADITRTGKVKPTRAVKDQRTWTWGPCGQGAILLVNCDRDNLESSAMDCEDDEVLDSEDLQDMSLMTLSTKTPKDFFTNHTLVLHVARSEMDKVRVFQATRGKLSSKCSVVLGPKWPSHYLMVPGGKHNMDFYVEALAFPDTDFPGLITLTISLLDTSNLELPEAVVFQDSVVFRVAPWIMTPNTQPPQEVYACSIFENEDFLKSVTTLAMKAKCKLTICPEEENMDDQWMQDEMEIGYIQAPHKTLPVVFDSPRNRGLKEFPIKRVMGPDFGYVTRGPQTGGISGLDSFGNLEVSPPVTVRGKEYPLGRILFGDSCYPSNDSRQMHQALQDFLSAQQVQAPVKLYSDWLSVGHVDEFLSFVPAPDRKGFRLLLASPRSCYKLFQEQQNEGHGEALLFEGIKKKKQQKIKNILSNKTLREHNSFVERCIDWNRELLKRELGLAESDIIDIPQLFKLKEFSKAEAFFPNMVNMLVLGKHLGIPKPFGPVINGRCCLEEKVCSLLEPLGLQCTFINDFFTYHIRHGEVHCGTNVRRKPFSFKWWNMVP

As usually defined, the IC50 is the concentration that gives 50% inhibition. Regarding `C[C@H]1NC(=O)c2ccc(Cl)nc2CCCCCn2c(-c3nc4cc(C(=O)N5C[C@H](N)[C@@H]6CC[C@H]5C6)cc(F)c4n3C3CC3)cc3cc(F)c1nc32` [Example 895, (2~{R})-17-[5-[(1~{S},4~{R}, 5~{R})-4-amino-2-azabicyclo [3.2.1]octane-2-carbonyl]-1-cyclopropyl-7-fluoro-benzimidazol-2-yl]-8-chloro-21-fluoro-2-methyl-3,9,16,22-tetrazatetracyclo[14.5.2.0^ {5,10).0^{19,23}]tricosa-1(22),5(10),6,8,17,19(23),20-heptaen-4-one], the 50% inhibitory concentration (IC50) was 34 nM.

Take `C[C@H]1NC(=O)c2ccccc2CCCCCn2c(-c3nc4cc(C(=O)N[C@H]5CNCC[C@@H]5F)c(F)cc4n3C)cc3ccc1nc32` [Example 593, 6-fluoro-~{N}-[(3~{S},4~ {S})-4-fluoro-3-piperidyl]-1-methyl-2-[(2~{R})-2-methyl-4-oxo-3,16,22-triazatetracyclo[14.5.2.0^ {5,10}.0^{19,23}]tricosa-1(21),5(10),6,8,17, 19,22-heptaen-17-yl] benzimidazole-5-carboxamide]: the IC50 is 44 nM. Next, `COc1cc(C(=O)N2CCC[C@@H](N)C2)cc2nc(-c3cc4ccc5nc4n3CCCCCC[C@@H](C)C(=O)N[C@@H]5C)n(C)c12` [Example 110, (8~{R},11~{R})-17-[5-[(3~{R})-3-aminopiperidine-1-carbonyl]-7-methoxy-1-methyl-benzimidazol-2-yl]-8,11-dimethyl-1,10,19-triazatricyclo[10.5.2.0^{15,18}]nonadeca-12(19),13,15(18),16-tetraen-9-one]: 70 nM. For `COc1cc(C(=O)N[C@H]2CNCC[C@@H]2F)cc2nc(-c3cc4ccc5nc4n3CCCCC[C@H]3[C@H](C(=O)N[C@@H]5C)C3(F)F)n(C)c12` [Example 368, 2-[(2~{R},5~{R},7~{S})-6,6-difluoro-2-methyl-4-oxo-3,13,19-triazatetracyclo[11.5.2.0^{5,7}.0^{16,20}]icosa-1(19),14,16(20),17-tetraen-14-yl]- ~{N}-[(3~{S},4~{S})-4-fluoro-3-piperidyl]-7-methoxy-1-methyl-benzimidazole-5-carboxamide], the concentration for half-maximal inhibition (IC50) is 34 nM.

Regarding `COc1cc(C(=O)N2C[C@H](N)[C@@H]3CC[C@H]2C3)cc2nc(-c3cc4ccc5nc4n3CCCc3ccc4cccc(c4c3)C(=O)N[C@@H]5C)n(C)c12` [Example 950, (4~{R})-10-[5-[(1~{S},4~{R},5~ {R})-4-amino-2-azabicyclo [3.2.1]octane-2-carbonyl]-7-methoxy-1-methyl-benzimidazol-2-yl]-4-methyl-3,6,11-triazapentacyclo [13.6.2.2^{5,8}.0^{7,11}.0^ {18,22}]pentacosa-1(22),5,7,9, 15(23),16,18,20,24-nonaen-2-one], the IC50 was found to be 38 nM. As to `COc1cc(C(=O)N2CC[C@@H](OC)[C@@H](N)C2)cc2nc(-c3cc4ccc5nc4n3CCCCCC[C@](C)(C(F)(F)F)C(=O)N[C@@H]5C)n(C)c12` [Example 720, (8~{S},11~{R})-17-[5-[(3~ {S},4~{R})-3-amino-4-methoxy-piperidine-1-carbonyl]-7-methoxy-1-methyl-benzimidazol-2-yl]-8,11-dimethyl-8-(trifluoromethyl)-1,10,19-triazatricyclo[10.5.2.0^ {15,18}]nonadeca-12(19),13,15(18),16-tetraen-9-one], the IC50 turned out to be 65 nM. Consider `COc1cc(C(=O)N[C@@H]2CNC[C@@H](O)C2)cc2nc(-c3cc4ccc5nc4n3CCCCCCC(C)(C)C(=O)N[C@@H]5C)n(C)c12` [Example 529, ~{N}-[(3~{S},5~{S})-5-hydroxy-3-piperidyl]-7-methoxy-1-methyl-2-[(11~{R})-8,8,11-trimethyl-9-oxo-1,10,19-triazatricyclo[10.5.2.0^{15,18}]nonadeca-12(19),13,15(18),16-tetraen-17-yl]benzimidazole-5-carboxamide], for which the IC50 amounted to 409 nM. Next, `COc1cc(C(=O)N2CCC[C@@H](N)C2)cc2nc(-c3cc4ccc5nc4n3C[C@H]3C[C@@H]3[C@H](C)OCCC(=O)N[C@@H]5C)n(C)c12` [Example 161, (3~{S},5~{S},6~{S},12~{R})-18-[5-[(3~{R})-3-aminopiperidine-1-carbonyl]-7-methoxy-1-methyl-benzimidazol-2-yl]-6,12-dimethyl-7-oxa-1,11,20-triazatetracyclo[11.5.2.0^{3,5}.0^{16,19}] icosa-13(20),14,16(19),17-tetraen-10-one]: 108 nM; `COc1cc(C(=O)N2CC[C@@H](OC)[C@@H](N)C2)cc2nc(-c3cc4ccc5nc4n3CCCCCc3nccnc3C(=O)N(C)[C@@H]5C)n(C)c12` [Example 855, (2~{R})-17-[5-[(3~{S},4~{R})-3-amino-4-methoxy-piperidine-1-carbonyl]-7-methoxy-1-methyl-benzimidazol-2-yl]-2,3-dimethyl-3,6,9,16,22-pentazatetracyclo[14.5.2.0^ {5,10}.0^1923]tricosa-1(22),, 5(10),6,8,17,19(23),20-heptaen-4-one]: 65 nM; `C[C@H]1NC(=O)c2cc(Cl)ncc2CCCCCn2c(-c3nc4cc(C(=O)N[C@H]5CNCC[C@@H]5F)c(F)cc4n3C3CC3)cc3ccc1nc32` [Example 356, 2-[(2~{R})-7-chloro-2-methyl-4-oxo-3,8,16,22-tetrazatetracyclo[14.5.2.0^{5,10).0^{19,23}]tricosa-1(22),5,7,9,17,19(23),20-heptaen-17-yl]-1-cyclopropyl-6-fluoro-~ {N}-[(3~{S},4~{S})-4-fluoro-3-piperidyl]benzimidazole-5-carboxamide]: 37 nM. Consider `COc1cc(C(=O)N2CC[C@@H](OC)[C@@H](N)C2)cc2nc(-c3cc4ccc5nc4n3CCCCCc3cc(Cl)ncc3C(=O)N[C@@H]5C)n(C)c12` [Example 653, 17-[5-[(3~{S},4~{R})-3-amino-4-methoxy-piperidine-1-carbonyl]-7-methoxy-1-methyl-benzimidazol-2-yl]-8-chloro-2-methyl-3,7,16,22-tetrazatetracyclo[14.5.2.0^ {5,10}.0^{19,23}] tricosa-1(22),5,7,9,17,19(23), 20-heptaen-4-one], for which the concentration for half-maximal inhibition (IC50) turned out to be 44 nM. Next, `[2H]C1([2H])CCCn2c(-c3nc4cc(C(=O)N5C[C@H](N)[C@@H]6CC[C@H]5C6)cc(F)c4n3C3CC3)cc3ccc(nc32)[C@@H](C)NC(=O)c2ccc(Cl)nc2C1([2H])[2H]` [Example 951, (2~{R})-17-[5-[(1~{S},4~{R}, 5~{R})-4-amino-2-azabicyclo [3.2.1]octane-2-carbonyl]-1-cyclopropyl-7-fluoro-benzimidazol-2-yl]-8-chloro-11,11,12,12-tetradeuterio-2-methyl-3,9,16,22-tetrazatetracyclo[14.5.2.0^ {5,10).0^{19,23}]tricosa-1(22),5(10),6,8,17,19(23),20-heptaen-4-one]: 24 nM.

Regarding `COc1cc(C(=O)N2CCC[C@@H](N)C2)cc2nc(-c3cc4ccc5cc4n3CCCCCCC(C)(C)C(=O)N[C@@H]5C)n(C3CC3)c12` [Example 160, (11~{R})-17-[5-[(3~{R})-3-aminopiperidine-1-carbonyl]-1-cyclopropyl-7-methoxy-benzimidazol-2-yl]-8,8,11-trimethyl-1,10-diazatricyclo[10.5.2.0^{15,18}]nonadeca-12(19),13,15(18),16-tetraen-9-one], the IC50 was found to be 53 nM.

As to `COc1cc(C(=O)N2CC[C@@H](OC)[C@@H](N)C2)cc2nc(-c3cc4ccc5nc4n3CCCCC[C@H]3C[C@]3(C(F)(F)F)C(=O)N[C@@H]5C)n(C)c12` [Example 636, (2~{R},5~{R},7~{S})-14-[5-[(3~{S},4~{R})-3-amino-4-methoxy-piperidine-1-carbonyl]-7-methoxy-1-methyl-benzimidazol-2-yl]-2-methyl-5-(trifluoromethyl)-3,13,19-triazatetracyclo [11.5.2.0^{5,7}.0^ {16,20}]icosa-1(19), 14,16(20),17-tetraen-4-one], the 50% inhibitory concentration (IC50) was 52 nM.

Regarding `COc1cc(C(=O)N2C[C@H](N)[C@@H]3CC[C@H]2C3)cc2nc(-c3cc4ccc5nc4n3CCCCCc3ccc(F)cc3C(=O)N[C@@H]5C)n(C3CC3)c12` [Example 953, (2~{R})-17-[5-[(1~{S},4~{R}, 5~{R})-4-amino-2-azabicyclo [3.2.1]octane-2-carbonyl]-1-cyclopropyl-7-methoxy-benzimidazol-2-yl]-7-fluoro-2-methyl-3,16,22-triazatetracyclo[14.5.2.0^ {5,10}.0^{19,23}]tricosa-1(22),5(10),6,8,17,19(23), 20-heptaen-4-one], the IC50 was found to be 68 nM.

Regarding `C[C@H]1NC(=O)c2ccc(Cl)nc2CCCCCn2c(-c3nc4cc(C(=O)N5C[C@H](N)[C@@H]6CC[C@H]5C6)cc(F)c4n3CC(C)(C)C)cc3ccc1nc32` [Example 947, (2~{R})-17-[5-[(1~{S},4~ {R},5~{R})-4-amino-2-azabicyclo[3.2.1]octane-2-carbonyl]-1-(2,2-dimethylpropyl)-7-fluoro-benzimidazol-2-yl]-8-chloro-2-methyl-3,9,16,22-tetrazatetracyclo [14.5.2.0^{5,10}.0^{19,23}] tricosa-1(22),5(10),6,8,17, 19(23),20-heptaen-4-one], the IC50 worked out at 92 nM. For `COc1cc(C(=O)N2CCC[C@@H](N)C2)cc2nc(-c3cc4ccc5cc4n3CCCCCCC3(CC3)C(=O)N[C@@H]5C)n(C3CC3)c12` [Example 159, (11~{R})-17-[5-[(3~{R})-3-aminopiperidine-1-carbonyl]-1-cyclopropyl-7-methoxy-benzimidazol-2-yl]-11-methyl-spiro[1,10-diazatricyclo[10.5.2.0^{15,18}]nonadeca-12(19),13,15(18),16-tetraene-8,1′-cyclopropane]-9-one] the value was 62 nM.
